Results on ten compounds are retold here after EP0055702B1, “Antithrombotic treatment” (priority 1980, dated 1982).

Read-outs that look alike come from different tables or passages of the source.

The nature of data set [1]: PT of coded and various agents, Example 6. Format: biochemical. An excerpt:
(§1) A variety of agents were coded and evaluated under a code designation. Among these compounds, thiouracil, mercaptosuccinic acid, thiosemicarbazide, phenothiazine and sodium thiosulphate were included, so as to compare sodium bisulphite with certain compounds mentioned in USP 4,148,855.
(§2) After determination of PT and PTT values, the coded compounds were decoded.
(§3) The results are shown in Table V, where mean values of 5 replications in each case are reported. […] This procedure was repeated with some additional compounds on two different days using a different control on each day.

Data set [2] in a line: PTT of coded and various agents, Example 6. Type of data set: biochemical. The note with it: for PTT: Table V, coded agents 0.5 mg/ml, Control 43.38.
From the text: as §1, §2, §3

Data set [3] deals with human, rabbit and rat plasma. Description: PT (prothrombin time) in plasma in vitro, Example 3. The settings on record: for prolongation of PT: 0.5 mg/ml, human, rabbit and rat plasma in vitro, dose-related; for PT (seconds) Exp. 1 A / PT (seconds) Exp.2 A: active agent 0.5/ml, control. Type of data set: biochemical. An excerpt: (§4) Sodium, potassium and ammonium bisulphites are found to prolong PT and PTT in a dose-related fashion.
(§5) The evaluation procedure used is that described in "Human Blood Coagulation, Haemostasis and Thrombosis", edited by Rosemary Biggs, published by Blackwell Scientific Publications, Oxford, England (2nd Edition), pages 670-705, 1976.

Data set [4] has as its system human, rabbit and rat plasma. Nature of the data set: PTT (partial thromboplastin time) in plasma in vitro, Example 3. Format: biochemical. The settings on record: for prolongation of PTT: 0.5 mg/ml, human, rabbit and rat plasma in vitro, dose-related; for PTT (seconds) Exp. 2 A / PTT (seconds) Exp. 1 A: active agent 0.5/ml, control.
From the text: as §4, §5

The test system of another data set is thrombin. The note with it: Elias; cited from earlier work.
The subject of data set [5] is celite-fibrinogen suspension. The note with it: Chao, cited from earlier work.
The test system of the next data set is dog plasma. The settings on record: 10 mM, Elias; cited from earlier work.
The subject of data set [6] is platelet-fibrinogen preparations. The settings on record: 10 to 50 mM; Chao; cited from earlier work.
A further data set deals with blood coagulation time. The note with it: 10 mM; Kikugawa; cited from earlier work.
For data set [7] the following is noted: rabbits; cited from earlier work.
Where [8] appears, read: Table V, coded agents 0.5 mg/ml, Control 12.92.
[9] abbreviates: coded compounds after decoding, in vitro.

Turning to “Dihydroxymalcic acid 2 H2O [Solution A3, reference compound]”, in [1] (setting [8]), the “PT” value came out at 14.95 s. For the same compound, the “PTT” value in [2] was 53.00 s.
Take “Sodium thiosulphate [SI6, reference compound]”: in data set [1], the “PT” value came to 13.5 s.
On to potassium bisulphite, for which the “prolongation of PT” value in data set [3] is “significantly prolong”. The “prolongation of PTT” value in data set [4] is given as “significantly prolong”.
For `O=S([O-])S(=O)(=O)[O-].[Na+].[Na+]` [Sodium metabisulphite], the “PTT (seconds) Exp. 2 A” value in [4] (Test sequence A) stood at 80.3 s.
Consider ammonium bisulphite, for which, in [3], the “prolongation of PT” value is “significantly prolong”. Also, in data set [4], the “prolongation of PTT” value is “significantly prolong”.
Regarding Sodium sulphite, the results for the “PT” value in data set [1] and in data set [1] (setting [8]) were 16.38 s and 16.14 s, respectively. Also, the “PT (seconds) Exp. 1 A” value was 16.2 s in data set [3] (Test sequence A) and 16.8 s in data set [3] (Test sequence B). The “PT (seconds) Exp.2 A” value in data set [3] (Test sequence A) and in data set [3] (Test sequence B) was 17.7 s each time. Also, the “inhibitory effect on TAME esterolytic activity of thrombin” value with thrombin is recorded as “No inhibitory effect”. Besides, the “inhibition of thrombin-induced light transmission increase (LTI)” value in data set [5] (10 mM) is reported as “partial inhibition”; in data set [5] (50 mM) it was “complete inhibition”. In addition, the “PTT (seconds) Exp. 1 A” value stood at 66.1 s in data set [4] (Test sequence A) and 74.8 s in data set [4] (Test sequence B). The “PTT (seconds) Exp. 2 A” value in data set [4] (Test sequence A) amounted to 80.7 s; in data set [4] (Test sequence B), 82.1 s. In the data set with dog plasma, the “increase of thrombin time” value is listed as “about 38%”. Also, the “effect on the first wave of platelet-fibrinogen preparations” value in data set [6] is on record as “no effect”. For the same compound, the “PTT” value in [2] turned out to be 64.62 s.
What is called LD50 is the dose at which mortality reaches 50%. sodium bisulphite/sulphite: the “effect on blood coagulation time” value with blood coagulation time is listed as “no effect”. For the same compound, the LD50 in data set [7] was 65 mg/kg.
Regarding `O=S([O-])S(=O)(=O)[O-].[K+].[K+]` [Potassium metabisulphite], in [3] (Test sequence A), the “PT (seconds) Exp.2 A” value was found to be 22.0 s.
Consider Ammonium sulphite, for which the “PT” value in [1] worked out at 16.08 s. Besides, in data set [3] (Test sequence A), the “PT (seconds) Exp. 1 A” value was 14.7 s and the “PT (seconds) Exp.2 A” value stood at 16.9 s. Moreover, in [4] (Test sequence A), the “PTT (seconds) Exp. 1 A” value was found to be 56.5 s and the “PTT (seconds) Exp. 2 A” value stood at 65.2 s.
On to `O=S(=O)(O)CO` [SO3, Sodium formaldehyde bisulphite, reference compound], for which, in [1] (setting [9]), the “effect on PT values” is “effected in increasing PT and PTT values”. Moreover, the “effect on PTT values” in [2] (setting [9]) was “effected in increasing PT and PTT values”.
